Results from the supplement of paper PMC11061612.

What was measured:
Experiment in all cases: combination Emax (second highest fraction inhibited in the dose matrix, 72 h); higher = more inhibition; extreme values may be limits of the assay
[1] = test system: SNU-C5 (Colorectal Carcinoma)
How it was run: (§1)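 Cell lines grown in DMEM/F12 or RPMI with 10% FBS were plated in 1536-well plates and held 24 hours at 37°C, 5% CO2 before 72 hours of exposure to two-drug dose matrices, with DMSO typically at 0.2%. CellTiter-Glo 2.0 luminescence gave viability, which was converted to inhibition. Vehicle wells were set to 0 and blank wells to 1. Combination Emax is the second-highest inhibition in the matrix, and Bliss excess is the observed combination effect minus the expected EA + EB − EA·EB, where EA and EB are the single-agent effects.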

[2] = test system: HCC2157 (Breast Carcinoma)
How it was run: as §1

[3] = test system: COR-L95 (Small Cell Lung Carcinoma)
How it was run: as §1

[4] = test system: TE-5 (Esophageal Squamous Cell Carcinoma)
How it was run: as §1

[5] = test system: CAL-78 (Chondrosarcoma)
How it was run: as §1

[6] = test system: LU-99A (Non-Small Cell Lung Carcinoma)
How it was run: as §1

[7] = test system: SUIT-2 (Pancreatic Carcinoma)
How it was run: as §1

[8] = test system: ES7 (Ewing's Sarcoma)
How it was run: as §1

[9] = test system: SW1783 (Low Grade Glioma)
How it was run: as §1

[10] = test system: SW1088 (Low Grade Glioma)
How it was run: as §1

[11] = test system: NALM-6 (B-Lymphoblastic Leukemia)
How it was run: as §1

[12] = test system: J82 (Bladder Carcinoma)
How it was run: as §1

[13] = test system: G-292-Clone-A141B1 (Osteosarcoma)
How it was run: as §1

[14] = test system: HT-29 (Colorectal Carcinoma)
How it was run: as §1

[15] = test system: COR-L23 (Non-Small Cell Lung Carcinoma)
How it was run: as §1

[16] = test system: KARPAS-620 (Plasma Cell Myeloma)
How it was run: as §1

[17] = test system: TGBC24TKB (Biliary Tract Carcinoma)
How it was run: as §1

[18] = test system: MDA-MB-231 (Breast Carcinoma)
How it was run: as §1

[19] = test system: CFPAC-1 (Pancreatic Carcinoma)
How it was run: as §1

[20] = test system: HPAC (Pancreatic Carcinoma)
How it was run: as §1

Structure (SMILES) | combination Emax [1] | combination Emax [2] | combination Emax [3] | combination Emax [4] | combination Emax [5] | combination Emax [6] | combination Emax [7] | combination Emax [8] | combination Emax [9] | combination Emax [10] | combination Emax [11] | combination Emax [12] | combination Emax [13] | combination Emax [14] | combination Emax [15] | combination Emax [16] | combination Emax [17] | combination Emax [18] | combination Emax [19] | combination Emax [20]
COc1nnc2ccc(N3CCC(c4ccc(OCCN5CCN(C)C(=O)[C@H]5C)cc4)CC3)nn12 [AZD5153] + Cc1c2c(nn1C)CSCc1cc(n(C)n1)CSc1cc(c3ccccc3c1)OCCCc1c(C(=O)O)n(C)c3c-2c(Cl)ccc13 [AZD5991] (first compound max 1 µM, 7x7, partner max 1 µM) | 0.56 | 1 | 0.371 | 0.407 | 0.749 | 0.807 | 0.462 | 0.928 | 0.336 | 0.487 | 0.904 | 0.791 | 0.387 | 0.716 | 0.312 | 1 | 0.848 | 0.642 | 0.419 | 0.628
Cn1cnc2c(F)c(Nc3ccc(Br)cc3Cl)c(C(=O)NOCCO)cc21 [Selumetinib] + CCN(CCO)CCCOc1ccc2c(Nc3cc(CC(=O)Nc4cccc(F)c4)[nH]n3)ncnc2c1 [AZD2811] (first compound max 10 µM, 7x7, partner max 1 µM) | 0.436 | 0.628 | 0.21 | 0.186 | 0.267 | 0.453 | 0.349 | 0.792 | 0.0665 | 0.424 | 0.836 | 0.153 | 0.102 | 0.715 | 0.467 | 0.87 | 0.551 | 0.519 | 0.292 | 0.906
Cc1c2c(nn1C)CSCc1cc(n(C)n1)CSc1cc(c3ccccc3c1)OCCCc1c(C(=O)O)n(C)c3c-2c(Cl)ccc13 [AZD5991] + C[C@@H](Nc1cc(F)cc(F)c1)c1cc(C(=O)N(C)C)cc2c(=O)cc(N3CCOCC3)oc12 [AZD8186] (first compound max 1 µM, 7x7, partner max 3 µM) | 0.254 | 0.987 | 0.346 | 0.191 | 0.875 | 0.275 | 0.175 | 0.95 | 0.4 | 0.533 | 0.672 | 0.234 | 0.415 | 0.24 | 0.104 | 1 | 0.249 | 0.23 | 0.294 | 0.378
COc1cccc(OCCCN)c1-c1cc(Nc2cnc(C#N)cn2)n[nH]1 [Prexasertib] + Cc1cc2ncnn2cc1Nc1ncc2c(n1)n(C1CCOCC1)c(=O)n2C [AZD7648] (first compound max 1 µM, 7x7, partner max 10 µM) | 0.886 | 0.958 | 0.644 | 0.526 | 0.586 | 0.804 | 0.739 | 0.876 | 0.473 | 0.762 | 0.943 | 0.377 | 0.295 | 0.861 | 0.711 | 0.817 | 0.827 | 0.696 | 0.692 | 0.816
COc1cc2ncnc(Nc3ccc(F)c(Cl)c3)c2cc1OCCCN1CCOCC1 [Gefitinib] + CC(C)n1c(=O)n(C)c2cnc3cc(F)c(-c4ccc(OCCCN5CCCCC5)nc4)cc3c21 [AZD1390] (first compound max 10 µM, 7x7, partner max 0.3 µM) | 0.0876 | 0.723 | 0.261 | 0.15 | 0.194 | 0.154 | 0.111 | 0.385 | 0.0328 | 0.108 | 0.176 | 0.139 | 0.0339 | 0.315 | 0.0639 | 0.141 | 0.348 | 0.193 | 0.304 | 0.222
COc1nnc2ccc(N3CCC(c4ccc(OCCN5CCN(C)C(=O)[C@H]5C)cc4)CC3)nn12 [AZD5153] + CC1(C)CCC(CN2CCN(c3ccc(C(=O)NS(=O)(=O)c4ccc(NCC5CCOCC5)c([N+](=O)[O-])c4)c(Oc4cnc5[nH]ccc5c4)c3)CC2)=C(c2ccc(Cl)cc2)C1 [Venetoclax] (first compound max 1 µM, 7x7, partner max 1 µM) | 0.522 | 1 | 0.802 | 0.412 | 0.457 | 0.456 | 0.371 | 0.565 | 0.28 | 0.471 | 0.993 | 0.308 | 0.256 | 0.718 | 0.317 | 0.927 | 0.642 | 0.661 | 0.416 | 0.535
CN(C)CCCOc1ccc(-c2ccc3ncc4c(c3c2)n(C2CCOCC2)c(=O)n4C)cn1 [AZD0156] + C=CCn1c(=O)c2cnc(Nc3ccc(N4CCN(C)CC4)cc3)nc2n1-c1cccc(C(C)(C)O)n1 [AZD1775] (first compound max 1 µM, partner max 1 µM) | 0.583 | 0.832 | 0.623 | 0.352 | 0.428 | 0.677 | 0.619 | 0.542 | 0.179 | 0.425 | 0.906 | 0.333 | 0.197 | 0.83 | 0.298 | 0.511 | 0.677 | 0.374 | 0.473 | 0.67
Cc1c2c(nn1C)CSCc1cc(n(C)n1)CSc1cc(c3ccccc3c1)OCCCc1c(C(=O)O)n(C)c3c-2c(Cl)ccc13 [AZD5991] + Cc1cc2ncnn2cc1Nc1ncc2c(n1)n(C1CCOCC1)c(=O)n2C [AZD7648] (first compound max 1 µM, 7x7, partner max 10 µM) | 0.267 | 0.984 | 0.315 | 0.356 | 0.782 | 0.414 | 0.179 | 0.682 | 0.256 | 0.423 | 0.471 | 0.187 | 0.267 | 0.223 | 0.131 | 1 | 0.243 | 0.333 | 0.259 | 0.254
CC(=O)c1c(C)c2cnc(Nc3ccc(N4CCNCC4)cn3)nc2n(C2CCCC2)c1=O [Palbociclib] + CC1(C)CCC(CN2CCN(c3ccc(C(=O)NS(=O)(=O)c4ccc(NCC5CCOCC5)c([N+](=O)[O-])c4)c(Oc4cnc5[nH]ccc5c4)c3)CC2)=C(c2ccc(Cl)cc2)C1 [Venetoclax] (first compound max 10 µM, 7x7, partner max 1 µM) | 0.468 | 0.601 | 0.709 | 0.0622 | 0.278 | 0.319 | 0.0936 | 0.644 | 0.0456 | 0.429 | 0.933 | 0.237 | 0.0906 | 0.399 | 0.106 | 0.842 | 0.274 | 0.408 | 0.311 | 0.204
COc1cccc(OCCCN)c1-c1cc(Nc2cnc(C#N)cn2)n[nH]1 [Prexasertib] + O=C(c1cc(Cc2n[nH]c(=O)c3ccccc23)ccc1F)N1CCN(C(=O)C2CC2)CC1 [Olaparib] (first compound max 1 µM, 7x7, partner max 10 µM) | 0.776 | 0.967 | 0.682 | 0.521 | 0.565 | 0.765 | 0.682 | 0.976 | 0.508 | 0.792 | 0.96 | 0.462 | 0.3 | 0.84 | 0.657 | 0.802 | 0.835 | 0.639 | 0.671 | 0.593
Cc1cc2ncnn2cc1Nc1ncc2c(n1)n(C1CCOCC1)c(=O)n2C [AZD7648] + CN(C)CCCOc1ccc(-c2ccc3ncc4c(c3c2)n(C2CCOCC2)c(=O)n4C)cn1 [AZD0156] (first compound max 10 µM, 7x7, partner max 1 µM) | 0.337 | 0.478 | 0.233 | 0.41 | 0.173 | 0.511 | 0.109 | 0.433 | 0.277 | 0.419 | 0.323 | 0.104 | 0.341 | 0.247 | 0.0702 | 0.468 | 0.357 | 0.42 | 0.235 | 0.169
CS(=O)(=O)CCNCc1ccc(-c2ccc3ncnc(Nc4ccc(OCc5cccc(F)c5)c(Cl)c4)c3c2)o1 [Lapatinib] + C[C@@H](Oc1cc(-c2cnn(C3CCNCC3)c2)cnc1N)c1c(Cl)ccc(F)c1Cl [Crizotinib] (first compound max 10 µM, 7x7, partner max 10 µM) | 0.764 | 1 | 0.812 | 0.502 | 0.897 | 0.603 | 0.657 | 0.927 | 0.248 | 0.654 | 0.959 | 0.662 | 0.71 | 0.942 | 0.949 | 0.873 | 0.952 | 0.828 | 0.963 | 0.929
CC(=O)Nc1cccc(-n2c(=O)n(C3CC3)c(=O)c3c(Nc4ccc(I)cc4F)n(C)c(=O)c(C)c32)c1 [Trametinib] + Cc1nc(-c2cn3c(n2)-c2ccc(-c4cnn(C(C)(C)C(N)=O)c4)cc2OCC3)n(C(C)C)n1 [Taselisib] (first compound max 1 µM, 7x7, partner max 10 µM) | 0.794 | 1 | 0.439 | 0.767 | 0.512 | 0.984 | 0.702 | 0.673 | 0.7 | 0.696 | 0.689 | 0.593 | 0.921 | 0.981 | 0.919 | 1 | 0.969 | 0.868 | 0.826 | 1
